What was measured:
P. aeruginosa = conditions: native peptide; cited from earlier work
M. tuberculosis = conditions: native peptide; cited from earlier work
S. aureus = conditions: native peptide; cited from earlier work
P. aeruginosa (PA01) = experiment: Transmission electron microscopy (TEM) on P. aeruginosa; assay type: cell-based, Pseudomonas aeruginosa
Experimental: Method 1 for Example 2: Transmission Electron Microscopy (TEM) with A3-S—C1 on P. aeruginosa
Pseudomonas aeruginosa PAO1 in the exponential phase were washed with phosphate buffered saline (PBS) and treated with 5 μg/mL Polymyxin B, 40 μg/mL G3KL and 40 or 64 μg/mL […] in M63 minimal medium. Each time, 1 ml of the bacteria were centrifuged after 15, 30 and 60 min at 12′000 rpm for 3 min and fixed overnight with 2.5% glutaraldehyde (Agar Scientific, Stansted, Essex, UK) in 0.15 M HEPES (Fluka, Buchs, Switzerland) with an osmolarity of 670 mOsm and adjusted to a pH of 7.35. The next day, PAO1 were washed with 0.15 M HEPES three times for 5 min, post fixed with 1% OsO4 (SPI Supplies, West Chester, USA) in 0.1 M Na-cacodylate-buffer (Merck, Darmstadt, Germany) at 4° C. for 1 h. Thereafter, bacteria were washed in 0.1 M Na-cacodylate-buffer three times for 5 min and dehydrated in 70, 80, and 96% ethanol (Alcosuisse, Switzerland) for 15 min each at room temperature. Subsequently, they were immersed in 100% ethanol (Merck, Darmstadt, Germany) three times for 10 min, in acetone (Merck, Darmstadt, Germany) two times for 10 min, and finally in acetone-Epon (1:1) overnight at room temperature. The next day, bacteria were embedded in Epon (Fluka, Buchs, Switzerland) and hardened at 60° C. for 5 days. […]

C. albicans = conditions: native peptide; cited from earlier work
E. coli = conditions: native peptide; cited from earlier work

Row | Substance | MIC (P. aeruginosa) [µg/mL] | MIC (M. tuberculosis) [µg/mL] | MIC (S. aureus) [µg/mL] | Effect on bacterial membranes (TEM imaging) (P. aeruginosa (PA01)) | Effect on P. aeruginosa (PA01) (P. aeruginosa (PA01); TEM, concentration 5 μg/mL) | MIC (C. albicans) [µg/mL] | MIC (E. coli) [µg/mL]
1 | IDR-1018: linear AMP VRLIVAVRIWRR (SEQ ID NO: 9) (AMP) | 19 | 16 | 5 | – | – | – | –
2 | Polymyxin B | – | – | – | attacks only the outer membrane of the bacteria | Attack on the outer membrane | – | –
3 | OP-145: linear AMP IGKEFKRIVERIKRFLRELVRPLR (SEQ ID NO: 12) (AMP) | 9.2 to 18.3 | – | – | – | – | 18.3 | 6.1 to 9.2

— patent US12329822B2, “Antimicrobial tailored chitosan” (UNIVERSITÉ DE GENÈVE, priority 2019, dated 2025)
